Data published in the NIST ThermoML archive (doi:10.1016/j.jct.2014.05.019).
± gives the expanded uncertainty stated by the source.

Key:
[1] = cn = amount concentration of the nth substance listed, in mol/dm3; conditions: 100 kPa, Liquid, Alternating current cell with electrodes, c1 = 0.1
[2] = 101.33 kPa, Liquid; for viscosity: Falling or rolling sphere viscometry; for mass density: Vibrating tube method
[3] = refractive index (Na D-line) (dimensionless); conditions: 101.33 kPa, Liquid, Standard Abbe refractometry

[Cl-].[K+] [potassium chloride] + O
[1]
Conditions | electrical conductivity [S/m]
288.15 K | 1.05 ± 0.1
293.15 K | 1.16 ± 0.1
295.15 K | 1.21 ± 0.1
297.15 K | 1.26 ± 0.1
298.15 K | 1.29 ± 0.1
299.15 K | 1.31 ± 0.1
301.15 K | 1.36 ± 0.1
303.15 K | 1.41 ± 0.1
308.15 K | 1.54 ± 0.1
313.15 K | 1.67 ± 0.1
318.15 K | 1.8 ± 0.1
323.15 K | 1.91 ± 0.1

O [water]
Conditions | mass density, [2] [kg/m3] | refractive index, [3] | viscosity, [2] [mPa·s]
298.15 K | – | 1.33247 ± 0.00031 | –
303.15 K | – | 1.33188 ± 0.00031 | 0.798 ± 0.04
308.15 K | – | 1.33124 ± 0.00031 | 0.719 ± 0.04
313.15 K | 992.3 ± 1 | 1.33053 ± 0.00031 | 0.654 ± 0.04
318.15 K | 990.3 ± 1 | 1.32974 ± 0.00031 | 0.595 ± 0.04
323.15 K | 988.2 ± 1 | 1.3289 ± 0.00031 | 0.546 ± 0.04
328.15 K | 985.9 ± 1 | 1.32799 ± 0.00031 | 0.506 ± 0.04
333.15 K | 983.4 ± 1 | 1.32704 ± 0.00031 | 0.466 ± 0.04
338.15 K | 980.8 ± 1 | 1.32605 ± 0.00031 | 0.435 ± 0.04
343.15 K | 978 ± 1 | 1.32503 ± 0.00031 | 0.408 ± 0.04
